Measured values published in ChEMBL document CHEMBL5120754, “Structural modification aimed for improving solubility of lead compounds in early phase drug discovery” (Bioorg Med Chem, 2022).
Converted amounts (≈) assume the structure as drawn.

Columns and labels:
[1] = target: Prostaglandin E2 receptor EP1 subtype (Homo sapiens, UniProt P34995); experiment: Antagonist activity at EP1 receptor (unknown origin); assay type: functional
[2] = physchem; details: buffer
[3] = target: Heat shock protein HSP90 (Homo sapiens, UniProt P07900+P08238); experiment: Inhibition of HSP90 (unknown origin); assay type: protein assay
[4] = test system: HCT-116; experiment: Antiproliferative activity against human HCT-116 cells; assay type: functional, cell-based
[5] = target: Tyrosine-protein kinase ABL1 (Homo sapiens, UniProt P00519); experiment: Inhibition of Abl kinase (unknown origin)
[6] = Permeability of compound in human Caco-2 cells; assay type: ADME, cell-based; details: read-out: permeability
[7] = target: Proto-oncogene tyrosine-protein kinase Src (Homo sapiens, UniProt P12931); experiment: Inhibition of Src (unknown origin)
[8] = test system: NCI-N87; experiment: cells; details: Homo sapiens, NCI-N87, 96 h
[9] = Inhibition of Integrin alpha-L (unknown origin)/Intercellular adhesion molecule 1 (unknown origin) interaction; set-up: species or system Homo sapiens
[10] = test system: Plasmodium falciparum; experiment: Antimalarial activity against Plasmodium falciparum 3D7; assay type: functional, organism-based
[11] = Antagonist activity at GlyN receptor (unknown origin); set-up: species or system Homo sapiens
[12] = test system: MIA PaCa-2; experiment: Antiproliferative activity against human MIA PaCa-2 cells; assay type: functional, cell-based
[13] = Inhibition of PI3K (unknown origin) activity; set-up: species or system Homo sapiens
[14] = Metabolic stability in human liver microsomes assessed as intrinsic clearance at 1 uM and measured by LC/MS-MS analysis; assay type: ADME, Microsome; details: read-out: CLH
[15] = target: Voltage-dependent T-type calcium channel subunit alpha-1I (Homo sapiens, UniProt Q9P0X4); experiment: Inhibition of Cav3.3 subunit 1alpha-l(unknown origin) stably transfected in HEK293 cells measured by FLIPR assay; assay type: cell-based
[16] = target: Oxysterols receptor LXR-beta (Mus musculus, UniProt Q60644); experiment: Agonist activity at mouse LXRbeta
[17] = Inhibition of rabbit aortic ACAT; set-up: species or system Oryctolagus cuniculus
[18] = buffer
[19] = target: Retinoic acid receptor beta (Homo sapiens, UniProt P10826); experiment: Agonist activity at human RAR-beta2 receptor
[20] = test system: Plasmodium falciparum; experiment: Antimalarial activity against blood stage chloroquine-sensitive Plasmodium falciparum 3D7 infected in human red blood cells measured by [3H]hypoxanthine incorporation assay; assay type: functional, organism-based, RBC; details: 3D7, Erythrocyte
[21] = target: CDK2/Cyclin A2 (Homo sapiens, UniProt P24941); experiment: Inhibition of CDK2/Cyclin A (unknown origin); assay type: protein-complex assay
[22] = target: T1, Glucose-dependent insulinotropic receptor (Homo sapiens, UniProt Q8TDV5); experiment: Agonist activity at human GPR119; assay type: functional
T1 sequence (Q8TDV5 whole entry): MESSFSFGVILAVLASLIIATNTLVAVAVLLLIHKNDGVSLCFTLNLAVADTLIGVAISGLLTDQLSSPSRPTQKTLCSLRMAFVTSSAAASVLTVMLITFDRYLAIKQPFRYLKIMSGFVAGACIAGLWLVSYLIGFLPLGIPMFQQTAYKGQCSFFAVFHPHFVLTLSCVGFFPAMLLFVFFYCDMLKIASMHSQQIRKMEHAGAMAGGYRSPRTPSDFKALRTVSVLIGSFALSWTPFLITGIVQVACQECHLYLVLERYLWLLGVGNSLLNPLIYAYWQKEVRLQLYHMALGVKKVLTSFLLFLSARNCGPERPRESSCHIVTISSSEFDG

Sequence of Prostaglandin E2 receptor EP1 subtype (P34995 whole entry): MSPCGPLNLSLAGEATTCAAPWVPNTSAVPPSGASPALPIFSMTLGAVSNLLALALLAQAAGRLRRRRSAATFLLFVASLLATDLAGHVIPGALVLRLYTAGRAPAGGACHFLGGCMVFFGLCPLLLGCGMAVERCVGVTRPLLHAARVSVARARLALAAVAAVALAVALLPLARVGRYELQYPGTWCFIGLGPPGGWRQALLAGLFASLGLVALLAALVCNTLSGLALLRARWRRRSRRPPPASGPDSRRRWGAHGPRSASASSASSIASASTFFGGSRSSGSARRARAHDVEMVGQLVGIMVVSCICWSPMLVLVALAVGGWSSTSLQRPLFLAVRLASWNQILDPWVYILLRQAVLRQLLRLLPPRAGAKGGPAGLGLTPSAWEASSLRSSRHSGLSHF
Sequence of Tyrosine-protein kinase ABL1 (P00519 whole entry): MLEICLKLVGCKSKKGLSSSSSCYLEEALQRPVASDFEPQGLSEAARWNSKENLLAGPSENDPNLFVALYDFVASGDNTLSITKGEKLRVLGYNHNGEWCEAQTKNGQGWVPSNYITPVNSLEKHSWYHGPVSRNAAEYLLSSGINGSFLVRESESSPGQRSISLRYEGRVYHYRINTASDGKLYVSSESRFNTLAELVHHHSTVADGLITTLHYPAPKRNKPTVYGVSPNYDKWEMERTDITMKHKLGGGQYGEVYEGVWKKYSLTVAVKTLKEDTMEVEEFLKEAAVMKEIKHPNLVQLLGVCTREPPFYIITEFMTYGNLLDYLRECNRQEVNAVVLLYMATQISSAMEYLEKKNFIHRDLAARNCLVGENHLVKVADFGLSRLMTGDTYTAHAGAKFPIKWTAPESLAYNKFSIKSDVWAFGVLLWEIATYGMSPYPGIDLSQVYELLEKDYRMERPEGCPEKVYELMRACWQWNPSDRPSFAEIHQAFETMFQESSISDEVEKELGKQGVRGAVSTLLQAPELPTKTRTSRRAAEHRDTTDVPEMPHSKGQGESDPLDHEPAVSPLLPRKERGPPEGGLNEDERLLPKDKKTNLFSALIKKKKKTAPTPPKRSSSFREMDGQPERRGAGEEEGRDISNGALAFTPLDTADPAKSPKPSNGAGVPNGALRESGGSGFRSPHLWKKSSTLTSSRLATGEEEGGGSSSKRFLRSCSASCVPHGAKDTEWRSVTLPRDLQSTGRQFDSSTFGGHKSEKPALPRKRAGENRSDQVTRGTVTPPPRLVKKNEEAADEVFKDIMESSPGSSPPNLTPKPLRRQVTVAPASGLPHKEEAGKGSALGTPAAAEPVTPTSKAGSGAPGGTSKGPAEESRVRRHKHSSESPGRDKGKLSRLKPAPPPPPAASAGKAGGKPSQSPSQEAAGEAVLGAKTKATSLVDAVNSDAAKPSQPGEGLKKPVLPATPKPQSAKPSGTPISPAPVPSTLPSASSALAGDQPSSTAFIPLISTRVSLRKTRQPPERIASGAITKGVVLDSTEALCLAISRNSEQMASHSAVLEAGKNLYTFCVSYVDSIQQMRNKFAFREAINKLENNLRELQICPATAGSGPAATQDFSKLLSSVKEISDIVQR
Sequence of Proto-oncogene tyrosine-protein kinase Src (P12931 2-536 limits assumed): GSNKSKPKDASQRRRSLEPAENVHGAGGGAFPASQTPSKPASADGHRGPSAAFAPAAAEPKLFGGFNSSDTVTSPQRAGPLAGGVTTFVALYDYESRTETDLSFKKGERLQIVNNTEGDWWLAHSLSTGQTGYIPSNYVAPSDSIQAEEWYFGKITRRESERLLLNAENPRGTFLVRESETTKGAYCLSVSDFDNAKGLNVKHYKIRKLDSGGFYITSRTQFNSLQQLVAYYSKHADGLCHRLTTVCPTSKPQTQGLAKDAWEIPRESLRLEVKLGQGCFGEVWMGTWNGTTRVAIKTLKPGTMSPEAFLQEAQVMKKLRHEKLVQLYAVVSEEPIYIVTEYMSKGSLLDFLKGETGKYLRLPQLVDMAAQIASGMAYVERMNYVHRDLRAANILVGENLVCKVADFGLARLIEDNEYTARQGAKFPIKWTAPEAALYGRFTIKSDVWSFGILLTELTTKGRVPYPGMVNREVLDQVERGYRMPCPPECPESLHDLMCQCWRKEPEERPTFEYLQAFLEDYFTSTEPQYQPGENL
Sequence of Retinoic acid receptor beta (P10826 whole entry): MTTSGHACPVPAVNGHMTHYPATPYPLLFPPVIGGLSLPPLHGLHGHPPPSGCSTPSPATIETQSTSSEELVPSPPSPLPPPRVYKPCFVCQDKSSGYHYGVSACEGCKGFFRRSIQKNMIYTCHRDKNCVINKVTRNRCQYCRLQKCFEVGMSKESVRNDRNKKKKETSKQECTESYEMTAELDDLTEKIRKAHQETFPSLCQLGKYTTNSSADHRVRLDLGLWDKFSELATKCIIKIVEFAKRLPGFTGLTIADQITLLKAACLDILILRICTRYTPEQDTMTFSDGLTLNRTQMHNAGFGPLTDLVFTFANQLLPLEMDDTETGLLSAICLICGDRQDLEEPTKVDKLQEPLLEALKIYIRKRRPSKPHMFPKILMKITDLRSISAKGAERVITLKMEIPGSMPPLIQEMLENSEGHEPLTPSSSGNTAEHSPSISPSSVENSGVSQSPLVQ
Sequence of Voltage-dependent T-type calcium channel subunit alpha-1I (Q9P0X4 whole entry): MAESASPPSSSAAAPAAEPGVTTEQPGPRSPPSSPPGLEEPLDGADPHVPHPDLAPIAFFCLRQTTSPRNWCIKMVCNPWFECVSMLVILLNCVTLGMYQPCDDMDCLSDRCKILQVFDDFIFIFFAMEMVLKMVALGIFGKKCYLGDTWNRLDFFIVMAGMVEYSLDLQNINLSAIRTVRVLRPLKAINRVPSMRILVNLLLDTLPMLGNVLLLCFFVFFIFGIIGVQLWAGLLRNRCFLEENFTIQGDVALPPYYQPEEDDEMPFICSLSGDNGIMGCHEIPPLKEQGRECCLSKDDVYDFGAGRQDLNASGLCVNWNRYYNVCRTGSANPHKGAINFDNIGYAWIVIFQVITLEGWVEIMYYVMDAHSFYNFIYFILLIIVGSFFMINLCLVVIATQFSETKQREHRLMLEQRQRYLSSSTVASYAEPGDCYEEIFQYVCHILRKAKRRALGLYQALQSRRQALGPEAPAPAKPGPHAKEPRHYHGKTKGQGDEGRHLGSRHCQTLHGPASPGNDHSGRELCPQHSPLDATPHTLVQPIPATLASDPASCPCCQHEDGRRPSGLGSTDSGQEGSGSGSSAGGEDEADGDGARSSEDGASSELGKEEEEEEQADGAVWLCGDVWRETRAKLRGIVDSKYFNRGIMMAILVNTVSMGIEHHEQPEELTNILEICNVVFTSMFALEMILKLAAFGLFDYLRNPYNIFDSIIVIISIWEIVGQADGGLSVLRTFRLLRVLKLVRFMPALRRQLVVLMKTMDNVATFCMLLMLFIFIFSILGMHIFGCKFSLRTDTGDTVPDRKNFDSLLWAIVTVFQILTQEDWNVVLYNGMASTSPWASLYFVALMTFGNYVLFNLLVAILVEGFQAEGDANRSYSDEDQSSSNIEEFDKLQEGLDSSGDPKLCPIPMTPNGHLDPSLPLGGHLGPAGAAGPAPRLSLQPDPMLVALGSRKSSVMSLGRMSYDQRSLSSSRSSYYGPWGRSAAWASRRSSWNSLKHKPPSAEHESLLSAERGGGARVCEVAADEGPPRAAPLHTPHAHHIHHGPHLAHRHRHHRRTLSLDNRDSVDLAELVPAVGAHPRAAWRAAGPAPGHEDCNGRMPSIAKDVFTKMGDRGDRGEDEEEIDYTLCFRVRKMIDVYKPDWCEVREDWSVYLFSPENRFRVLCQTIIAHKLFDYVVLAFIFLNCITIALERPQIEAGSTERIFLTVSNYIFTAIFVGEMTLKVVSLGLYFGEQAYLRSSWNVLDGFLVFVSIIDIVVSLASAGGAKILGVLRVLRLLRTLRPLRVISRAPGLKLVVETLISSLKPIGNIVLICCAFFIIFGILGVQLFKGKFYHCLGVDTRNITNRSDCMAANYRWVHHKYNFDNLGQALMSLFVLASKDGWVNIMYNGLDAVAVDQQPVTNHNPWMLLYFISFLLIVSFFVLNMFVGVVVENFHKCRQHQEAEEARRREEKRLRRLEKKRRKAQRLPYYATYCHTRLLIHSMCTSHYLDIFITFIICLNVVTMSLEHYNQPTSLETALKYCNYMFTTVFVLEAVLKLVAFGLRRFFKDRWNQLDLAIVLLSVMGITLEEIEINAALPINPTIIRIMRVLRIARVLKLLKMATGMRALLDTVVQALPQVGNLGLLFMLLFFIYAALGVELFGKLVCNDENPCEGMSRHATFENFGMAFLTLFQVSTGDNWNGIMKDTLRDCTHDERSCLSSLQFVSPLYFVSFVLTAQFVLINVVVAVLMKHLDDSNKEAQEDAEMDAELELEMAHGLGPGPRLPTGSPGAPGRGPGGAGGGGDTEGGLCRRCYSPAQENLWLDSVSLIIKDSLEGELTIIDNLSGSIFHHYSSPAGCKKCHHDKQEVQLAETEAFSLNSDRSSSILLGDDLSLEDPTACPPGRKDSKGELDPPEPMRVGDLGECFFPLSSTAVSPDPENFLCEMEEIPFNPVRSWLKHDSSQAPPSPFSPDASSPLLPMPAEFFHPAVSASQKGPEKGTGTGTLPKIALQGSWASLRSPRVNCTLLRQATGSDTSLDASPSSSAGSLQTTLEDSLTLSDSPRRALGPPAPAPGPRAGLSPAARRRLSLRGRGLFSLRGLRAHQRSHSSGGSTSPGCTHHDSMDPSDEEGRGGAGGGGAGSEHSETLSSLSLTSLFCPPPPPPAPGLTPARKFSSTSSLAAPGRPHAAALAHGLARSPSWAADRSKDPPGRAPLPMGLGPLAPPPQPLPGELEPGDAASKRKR

Structure (SMILES): CCNCc1ccc(NC(=O)c2cc(C)n(Cc3cc(Cl)ccc3OCc3ccccc3)n2)cc1
- pIC50 [1]: 7
- solubility thermodynamic [2]: 690 µg/mL

Structure (SMILES): CCc1cc(C(=O)N2Cc3ccccc3C2)c(O)cc1O
- Kd [3]: 0.54 nM
- IC50 [4]: 31 nM

Structure (SMILES): Clc1ccc(C(Cl)Cn2ncc3c(NCc4ccncc4)ncnc32)cc1 (stereo unspecified)
- IC50 [5]: 56400 nM
- Papp [6]: 174 ×10⁻⁶ cm/s
- IC50 [7]: 56400 nM
- solubility thermodynamic [2]: 12.3 µg/mL

Structure (SMILES): CSc1nc(N)nc(-c2c(Cl)cc3c4c(cccc24)COC3)n1
- IC50 [8]: 570 nM
- solubility thermodynamic [2]: 29 µM

Structure (SMILES): CC(=O)N1CCN(C(=O)/C=C/c2ccc(Sc3ccc4[nH]ccc4c3)c(Cl)c2)CC1
- IC50 [9]: 20 nM
- solubility thermodynamic [2]: 0.8 µg/mL

Structure (SMILES): O=c1cc(-c2ccc(Cc3ccc(OC(F)(F)F)cc3)cc2)[nH]c2ccccc12
- IC50 [10]: 117 nM
- solubility thermodynamic [2]: 30 µM

Structure (SMILES): CC(=O)N1CCN(C(=O)/C=C/c2ccc(Sc3ccc4c(c3)OCCO4)c(Cl)c2)CC1
- IC50 [9]: 40 nM
- solubility thermodynamic [2]: 4.1 µg/mL

Structure (SMILES): CN1CCc2c([N+](=O)[O-])cc3nc(O)c(O)nc3c2C1
- IC50 [11]: 63 nM
- solubility thermodynamic [2]: 8.6 µg/mL

Structure (SMILES): CC1(C)C(N(O)C(=O)Nc2ccc(Cl)cc2)N(c2ccc(Cl)cc2)C(=O)N1CC(=O)N/N=C/C=C/c1ccc([N+](=O)[O-])o1 (stereo unspecified)
- EC50 [12]: 4100 nM
- solubility thermodynamic [2]: 0.032 µM

Structure (SMILES): CCN1CCN(c2cc(F)c(NC(=O)N3CCc4c(-c5cnc(N)nc5)nc(N5CCOCC5)nc43)c(F)c2)CC1
- IC50 [13]: 0.022 µg/mL (≈ 0.0388 µM)
- solubility thermodynamic [2]: 20 µg/mL

Structure (SMILES): C[C@@H]1CN(Cc2ccccc2)c2cnccc2[C@H](C)N1C(=O)NCc1ccccc1
- microsomal CLint at 1 µM [14]: 56 µL/min/mg
- IC50 [15]: 55 nM
- solubility thermodynamic [2]: 27 µg/mL

Structure (SMILES): C[C@@H]1CN(Cc2ccccc2)c2ccccc2[C@H](C)N1C(=O)NCc1ccccc1
- microsomal CLint at 1 µM [14]: > 1250 µL/min/mg
- IC50 [15]: 6 nM
- solubility thermodynamic [2]: 1 µg/mL

Structure (SMILES): Cc1cc(C(=O)Nc2ccccc2)nn1Cc1cc(Cl)ccc1OCc1ccccc1
- pIC50 [1]: 7.4

Structure (SMILES): Fc1ccc(CNc2ncnc3c2cnn3CC(Cl)c2ccc(Cl)cc2)cc1 (stereo unspecified)
- IC50 [5]: 8100 nM
- Papp [6]: 322 ×10⁻⁶ cm/s
- IC50 [7]: 8100 nM
- solubility thermodynamic [2]: 0.04 µg/mL

Structure (SMILES): O=C1c2c(Cl)c(Cl)c(Cl)c(Cl)c2C(=O)N1c1ccccc1/C=C\c1ccccc1
- EC50 [16]: 300 nM
- solubility thermodynamic [2]: 0.0036 µg/mL

Structure (SMILES): CC(C)c1cccc(C(C)C)c1NC(=O)CCCCCCCCSc1nc2ccccc2o1
- IC50 [17]: 4 nM
- Therm_solubility [18]: 0.03 µg/mL

Structure (SMILES): CCCCCCCCc1ccc(-c2ccc(C(=O)O)cc2)cc1
- EC50 [19]: 6900 nM
- solubility thermodynamic [2]: 1 µg/mL

Structure (SMILES): CC(C)c1cccc(C(C)C)c1NC(=O)CN1CCN(CCSc2nc3ccccc3o2)CC1
- IC50 [17]: 84 nM
- solubility thermodynamic [2]: 19000 µg/mL

Structure (SMILES): COc1ccc2c(=O)cc(-c3cnn(Cc4ccc(OC(F)(F)F)cc4)c3)[nH]c2c1
- IC50 [10]: 33 nM
- solubility thermodynamic [2]: 0.3 µM

Structure (SMILES): CCCCOCCOc1nc(-c2ccc(C(=O)O)cc2)sc1C
- EC50 [19]: 8000 nM
- solubility thermodynamic [2]: 4800 µg/mL

Structure (SMILES): Cc1ccc(-c2cc(C(=O)Nc3cccnc3)c3cc(F)ccc3n2)cc1
- EC50 [20]: 120 nM
- solubility thermodynamic [2]: 39 µM

Structure (SMILES): CCc1cc(C(=O)N2Cc3ccc(CN4CCN(C)CC4)cc3C2)c(O)cc1O
- Kd [3]: 0.71 nM
- IC50 [4]: 48 nM
- solubility thermodynamic [2]: 30000 µg/mL

Structure (SMILES): CC(C(=O)NC1=CC(C2CC2)=CC1)c1ccc(N2CCCC2=O)cc1 (stereo unspecified)
- IC50 [21]: 37 nM
- solubility thermodynamic [2]: 250 µM

Structure (SMILES): O=C(Cc1ccc2ccccc2c1)NC1=CC(C2CC2)=CC1
- IC50 [21]: 37 nM
- solubility thermodynamic [2]: 22 µM

Structure (SMILES): CCc1cnc(N2CCC(n3ncc4ccc(-c5ccc(S(C)(=O)=O)cc5F)nc43)CC2)cn1
- EC50 [22]: 4 nM
- solubility thermodynamic [2]: 0.71 µM
